Measurements as given in patent EP4509511A1, “SUBSTITUTED SPIRO-ISOXAZOLINYL LACTAMS, SALTS THEREOF AND THEIR USE AS HERBICIDALLY ACTIVE SUBSTANCES” (Bayer Aktiengesellschaft, priority 2023, dated 2025).

What was measured:
[1] = test system: ECHCG; assay: Herbicidal post-emergence action - Part II; type: in vivo, Echinochloa crus-galli; conditions: 320 g/ha; Table E3b
Description: Seeds of mono- and dicotyledonous weed plants and crop plants were sown, in plastic or organic planting pots, in sandy loam, covered with soil and grown in a greenhouse under controlled growth conditions. 2 to 3 weeks after sowing, the test plants were sprayed in the single-leaf stage. The compounds according to the invention, formulated in form of wettable powders (WP) or as emulsifiable concentrates (EC), were sprayed onto the green plant parts as aqueous suspension or emulsion, with the addition of 0.5% of an additive, at an application rate of 600 1 of water/ha (converted). The test plants were placed in the greenhouse for ca. 3 weeks under optimum growth conditions, and then the effect of the preparations was assessed visually in comparison with untreated controls (herbicidal effect in percent (%): 100% effect = plants have died off, 0% effect = as control plants). Tables E1 to E10 below show the effects of selected compounds of the general formula (I) according to table 1 on various harmful plants and an application rate corresponding to 320 g/ha or below obtained by the experimental procedure mentioned above. Table E1a: post-emergence activity at 5g/ha against ABUTH in %

[2] = test system: ECHCG; assay: Herbicidal post-emergence action - Part I; type: in vivo, Echinochloa crus-galli; conditions: one-leaf stage, rated visually after about 3 weeks vs untreated controls
Method: (§1) Seeds of mono- and dicotyledonous weed plants were placed in plastic pots in sandy loam soil (doubly sown with in each case one species of mono- or dicotyledonous weed plants per pot), covered with soil and cultivated in a greenhouse under controlled growth conditions. 2 to 3 weeks after sowing, the test plants were treated at the one-leaf stage. The compounds of the invention, formulated in the form of wettable powders (WP) or as emulsion concentrates (EC), were applied onto the green parts of the plants as aqueous suspension or emulsion with addition of 0.5% additive at a water application rate of 600 liters per hectare (converted). After the test plants had been kept in the greenhouse under optimum growth conditions for about 3 weeks, the activity of the preparations was rated visually in comparison to untreated controls. For example, 100% activity = the plants have died, 0% activity = like control plants. Tables B1 to B12, below, show the effects of selected compounds of the general formula (I) according to table 1 on various harmful plants and an application rate corresponding to 1280 g/ha or below obtained by the experimental procedure mentioned above. Table B1a: post-emergence activity at 1280g/ha against ABUTH in %

[3] = test system: VERPE; assay: Herbicidal post-emergence action - Part I; type: in vivo, Veronica persica; conditions: one-leaf stage, rated visually after about 3 weeks vs untreated controls
Summary of the method: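 Activity was scored visually as % damage (100% = dead, 0% = like untreated) about 3 weeks after treatment. Plants at the one-leaf stage, 2-3 weeks old, were sprayed with WP/EC formulations plus 0.5% additive (600 L/ha water, up to 1280 g/ha). Plants were grown in sandy loam in a greenhouse.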

[4] = test system: LOLRI; assay: Herbicidal pre-emergence action - Part I; type: in vivo, Lolium rigidum; conditions: visual grading after ca. 3 weeks vs untreated controls
Description: (§2) Seeds of mono- and dicotyledonous weed plants were sown in plastic pots (double sowings with one species of mono- and one species of dicotyledonous weed plants per pot), in sandy loam, and covered with soil. The compounds according to the invention, formulated in the form of wettable powders (WP) or as emulsifiable concentrates (EC), were applied to the surface of the covering soil as aqueous suspension or emulsion, with the addition of 0.5% of an additive, at an application rate of 600 1 of water per hectare (converted). Following treatment, the pots were placed in a greenhouse and kept under optimum growth conditions for the test plants. The visual grading of the damage to the test plants was carried out after ca. 3 weeks in comparison to untreated controls (herbicidaleffectinpercent(%):100%effect=plantshavediedoff,0%effect=ascontrolplants). [formula]
(§3) Tables A1 to A12, below, show the effects of selected compounds of the general formula (I) according to table 1 on various harmful plants and an application rate corresponding to 1280 g/ha or below obtained by the experimental procedure mentioned above. Table A1: pre-emergence activity at 1280g/ha against ABUTH in %

[5] = test system: MATIN; assay: Herbicidal pre-emergence action - Part II; type: in vivo, Matricaria inodora; conditions: 320 g/ha; Table C8
Description: (§4) Seeds of mono- and dicotyledonous weed plants and crop plants were sown, in plastic or organic planting pots, in sandy loam and covered with soil. The compounds according to the invention, formulated in the form of wettable powders (WP) or as emulsifiable concentrates (EC), were applied to the surface of the covering soil as aqueous suspension or emulsion, with the addition of 0.5% of an additive, at an application rate of 600 1 of water/ha (converted). Following treatment, the pots were placed in a greenhouse and kept under optimum growth conditions for the test plants. The visual grading of the damage to the test plants was carried out after ca. 3 weeks in comparison to untreated controls (herbicidal effect in percent (%): 100% effect = plants have died off, 0% effect = as control plants). Tables C1 to C12 below show the effects of selected compounds of the general formula (I) according to table 1 on various harmful plants and an application rate corresponding to 320 g/ha or below obtained by the experimental procedure mentioned above. Table C1: pre-emergence activity at 320g/ha against ABUTH in %

[6] = test system: VERPE; assay: Herbicidal pre-emergence action - Part II; type: in vivo, Veronica persica
Description: as §4

[7] = test system: ABUTH; assay: Herbicidal pre-emergence action - Part II; type: in vivo, Abutilon theophrasti; conditions: visual grading after ca. 3 weeks vs untreated controls
Description: as §4

[8] = test system: VIOTR; assay: Herbicidal post-emergence action - Part II; type: in vivo, Viola tricolor; conditions: 320 g/ha; Table E9c
Summary of the method: (§5)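 Post-emergence greenhouse test: weeds and crops in sandy loam sprayed at single-leaf stage, 2–3 weeks after sowing, with WP or EC formulations in water plus 0.5% additive at 600 l water/ha. Rates 320 g/ha or below. Visual rating after ca. 3 weeks versus untreated controls, % effect (100% = plants dead).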

[9] = test system: SETVI; assay: Herbicidal post-emergence action - Part I; type: in vivo, Setaria viridis; conditions: one-leaf stage, rated visually after about 3 weeks vs untreated controls
Method: as §1

[10] = test system: DIGSA; assay: Herbicidal pre-emergence action - Part I; type: in vivo, Digitaria sanguinalis; conditions: visual grading after ca. 3 weeks vs untreated controls
Description: as §2, §3

[11] = test system: SETVI; assay: Herbicidal post-emergence action - Part II; type: in vivo, Setaria viridis; conditions: 320 g/ha; Table E7c
Summary of the method: as §5

[12] = test system: VERPE; assay: Herbicidal post-emergence action - Part II; type: in vivo, Veronica persica
Summary of the method: as §5

[13] = test system: AVEFA; assay: Herbicidal pre-emergence action - Part II; type: in vivo, Avena fatua; conditions: 320 g/ha; Table C4
Description: as §4

[14] = test system: POLCO; assay: Herbicidal pre-emergence action - Part II; type: in vivo, Polygonum convolvulus; conditions: 320 g/ha; Table C9
Description: as §4

[15] = test system: VIOTR; assay: Herbicidal pre-emergence action - Part II; type: in vivo, Viola tricolor
Description: as §4

[16] = test system: ABUTH; assay: Herbicidal post-emergence action - Part II; type: in vivo, Abutilon theophrasti; conditions: 320 g/ha; Table E1c
Summary of the method: as §5

## Cc1ccsc1C1=NOC2(CCCN(Cc3c(F)cccc3F)C2=O)C1 (racemic) [Compound I-2]
[1]
  post-emergence activity against ECHCG: 90%
[2]; 320 g/ha
  post-emergence activity at 320g/ha against ECHCG in %: 90%
[2]; 1280 g/ha
  post-emergence activity at 1280g/ha against ECHCG in %: 90%
[3]; 320 g/ha
  post-emergence activity at 320g/ha against VERPE in %: 90%
[3]; 1280 g/ha
  post-emergence activity at 1280g/ha against VERPE in %: 90%
[4]; 320 g/ha
  pre-emergence activity at 320g/ha against LOLRI in %: 100%
[4]; 1280 g/ha
  pre-emergence activity at 1280g/ha against LOLRI in %: 100%
[5]
  pre-emergence activity against MATIN: 90%
[6]; 80 g/ha, Table C11b
  pre-emergence activity against VERPE: 90%
[6]; 320 g/ha, Table C11a
  pre-emergence activity against VERPE: 90%
[7]
  pre-emergence activity at 320g/ha against ABUTH in %: 80%
[8]
  post-emergence activity against VIOTR: 80%
[9]; 80 g/ha
  post-emergence activity at 80g/ha against SETVI in %: 90%
[9]; 320 g/ha
  post-emergence activity at 320g/ha against SETVI in %: 90%
[9]; 1280 g/ha
  post-emergence activity at 1280g/ha against SETVI in %: 90%
[10]; 320 g/ha
  pre-emergence activity at 320g/ha against DIGSA in %: 100%
[10]; 1280 g/ha
  pre-emergence activity at 1280g/ha against DIGSA in %: 100%
[11]
  post-emergence activity against SETVI: 90%
[12]; 80 g/ha, Table E8c
  post-emergence activity against VERPE: 90%
[12]; 320 g/ha, Table E8d
  post-emergence activity against VERPE: 90%
[13]
  pre-emergence activity against AVEFA: 80%
[14]
  pre-emergence activity against POLCO: 80%
[15]; 80 g/ha, Table C12b
  pre-emergence activity against VIOTR: 90%
[15]; 320 g/ha, Table C12a
  pre-emergence activity against VIOTR: 90%
[16]
  post-emergence activity against ABUTH: 80%
